These results are taken from patent US8562949B2, “Radiolabeled dihydrotetrabenazine derivatives and their use as imaging agents” (The Trustees of the University of Pennsylvania, priority 2006, dated 2013).

The structures appear in SMILES notation.

The target of data set [1] is VMAT2 (Rattus norvegicus, UniProt Q01827). The data set can be described thus: Competition for [3H](±)TBZ binding in rat striatal homogenates. Details: The basal forebrain regions of rat and mouse brains were then dissected; from tissue; host or cells: rat striatum / basal forebrain homogenate. To be noted: Kd […] used for calculation.
In data set [2] the target is DAT sites (Mus musculus, UniProt Q61327). The data set can be described thus: Dual isotope experiment in lesioned mice, [125I]IPT.
From the text: Thirty minutes after injection, the mice were sacrificed and the brains removed. Different regions corresponding to striatum (ST), hippocampus (HP), cerebellum (CB), and cortex (CX) were dissected. In particular, the lesioned region was separated from non-lesioned area of the striatal tissues. Samples were counted in a gamma counter with two different window settings for F-18 and I-125, respectively, to obtain the regional distribution of each tracer.
To measure the degree of lesion, a dual-isotope experiment comparing the striatal uptakes in lesioned vs. unlesioned sites using [^18F]FP-DTBZ was performed. A marker [^125I]IPT (selective for dopamine transporters) was injected simultaneously.
The mark [3] stands for this setting: lesioned Mouse 1, 30 min post-injection.
Setting [4] is: lesioned Mouse 2, 30 min post-injection.
Where [5] appears, read: lesioned Mouse 3, 30 min post-injection.
Setting [6] is: lesioned Mouse 4, 30 min post-injection.

Sequence of DAT sites (Q61327 whole entry): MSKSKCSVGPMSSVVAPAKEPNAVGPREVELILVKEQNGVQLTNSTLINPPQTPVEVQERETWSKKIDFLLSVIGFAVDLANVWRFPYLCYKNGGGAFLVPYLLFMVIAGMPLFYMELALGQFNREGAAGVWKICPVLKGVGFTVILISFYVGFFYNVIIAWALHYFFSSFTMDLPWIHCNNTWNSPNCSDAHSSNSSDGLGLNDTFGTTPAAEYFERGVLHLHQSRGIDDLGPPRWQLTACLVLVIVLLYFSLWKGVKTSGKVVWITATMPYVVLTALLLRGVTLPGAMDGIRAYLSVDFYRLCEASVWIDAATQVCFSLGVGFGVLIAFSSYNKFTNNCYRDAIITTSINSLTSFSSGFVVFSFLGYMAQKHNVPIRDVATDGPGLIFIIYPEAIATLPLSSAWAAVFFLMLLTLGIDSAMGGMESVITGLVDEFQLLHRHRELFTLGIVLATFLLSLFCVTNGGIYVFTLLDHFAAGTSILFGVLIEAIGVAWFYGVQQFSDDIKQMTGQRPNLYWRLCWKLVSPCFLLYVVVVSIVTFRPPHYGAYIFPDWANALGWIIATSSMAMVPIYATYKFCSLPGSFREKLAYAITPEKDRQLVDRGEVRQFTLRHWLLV
Sequence of VMAT2 (Q01827 whole entry): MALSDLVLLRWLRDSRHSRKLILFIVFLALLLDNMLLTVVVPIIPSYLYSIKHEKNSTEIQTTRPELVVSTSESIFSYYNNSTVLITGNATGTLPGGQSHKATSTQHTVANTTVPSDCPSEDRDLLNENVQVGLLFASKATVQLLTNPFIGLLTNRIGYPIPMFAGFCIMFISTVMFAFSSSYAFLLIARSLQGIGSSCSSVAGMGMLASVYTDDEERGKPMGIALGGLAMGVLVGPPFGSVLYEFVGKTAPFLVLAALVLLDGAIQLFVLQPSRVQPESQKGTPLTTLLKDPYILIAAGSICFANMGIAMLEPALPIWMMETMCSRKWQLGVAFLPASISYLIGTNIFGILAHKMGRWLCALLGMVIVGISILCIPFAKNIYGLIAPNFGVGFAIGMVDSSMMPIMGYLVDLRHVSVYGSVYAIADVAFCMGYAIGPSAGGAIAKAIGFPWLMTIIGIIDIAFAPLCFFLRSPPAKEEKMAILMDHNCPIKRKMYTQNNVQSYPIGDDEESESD

With `COc1cc2c(cc1O)CCN1CC(CC(C)C)C(O)CC21` (racemic) [3,9-desmethyl-(±)DTBZ, (±)-9-O-Desmethyldihydrotetrabenazine, reference compound], the Ki in data set [1] ([3H](±)TBZ 1.0-1.5 nM) is 11.8 ± 1.7 nM.
Regarding `COc1cc2c(cc1OCCCF)CCN1CC(CC(C)C)C(O)CC21` (single isomer, unassigned) [FP-(−)-DTBZ], the Ki in data set [1] ([3H](±)-TBZ) was more than 3000 nM.
For the compound `COC(=O)C1C(c2ccc(Cl)cc2)CC2CCC1N2CC=CI` (stereo not drawn) [[^125I]IPT, N-(3′-iodopropen-2′-yl)-2-beta-carbomethoxy-3-beta-(4-chlorophenyl)tropane], in data set [2] (setting [3]), the “% StrL/StrN” value is listed as 32.6%, the “Regional brain distribution Cerebellum (CB)” value amounted to 0.96 % dose/g, the “Regional brain distribution Cortex” value amounted to 0.69 % dose/g and the “Regional brain distribution Hippocampus” value is given as 0.87 % dose/g. Moreover, in data set [2] (setting [3]), the “Regional brain distribution Hypothalamus” value is 1.28 % dose/g; the “Regional brain distribution Remainder” value was 1.34 % dose/g; the “ratio vs. CB, Cerebellum (CB)” value was 1.00; the “ratio vs. CB, Cortex” value came to 0.72. Moreover, in data set [2] (setting [3]), the “ratio vs. CB, Hippocampus” value is recorded as 0.91; the “ratio vs. CB, Hypothalamus” value was 1.34; the “ratio vs. CB, Remainder” value is 1.40; the “ratio vs. CB, Stratum N” value was found to be 9.63. In data set [2] (setting [3]), the “ratio vs. CB, Striatum L” value was 3.14. Moreover, in data set [2] (setting [4]), the “% StrL/StrN” value came out at 55.7%, the “Regional brain distribution Cerebellum (CB)” value is 0.77 % dose/g, the “Regional brain distribution Cortex” value turned out to be 0.62 % dose/g and the “Regional brain distribution Hippocampus” value is recorded as 0.70 % dose/g. In data set [2] (setting [4]), the “Regional brain distribution Hypothalamus” value came to 1.22 % dose/g; the “Regional brain distribution Remainder” value worked out at 1.16 % dose/g; the “ratio vs. CB, Cerebellum (CB)” value worked out at 1.00; the “ratio vs. CB, Cortex” value turned out to be 0.80. In data set [2] (setting [4]), the “ratio vs. CB, Hippocampus” value turned out to be 0.90; the “ratio vs. CB, Hypothalamus” value stood at 1.58; the “ratio vs. CB, Remainder” value is listed as 1.49; the “ratio vs. CB, Stratum N” value turned out to be 8.17. The “ratio vs. CB, Striatum L” value in data set [2] (setting [4]) is recorded as 4.55. Besides, in data set [2] (setting [5]), the “% StrL/StrN” value came out at 52.3%, the “Regional brain distribution Cerebellum (CB)” value was determined as 0.81 % dose/g, the “Regional brain distribution Cortex” value came out at 0.66 % dose/g and the “Regional brain distribution Hippocampus” value turned out to be 0.81 % dose/g. Also, in data set [2] (setting [5]), the “Regional brain distribution Hypothalamus” value was found to be 1.42 % dose/g; the “Regional brain distribution Remainder” value came to 1.57 % dose/g; the “ratio vs. CB, Cerebellum (CB)” value was 1.00; the “ratio vs. CB, Cortex” value is listed as 0.81. Further, in data set [2] (setting [5]), the “ratio vs. CB, Hippocampus” value is recorded as 1.00; the “ratio vs. CB, Hypothalamus” value came to 1.76; the “ratio vs. CB, Remainder” value is 1.95; the “ratio vs. CB, Stratum N” value is reported as 11.3. In addition, the “ratio vs. CB, Striatum L” value in data set [2] (setting [5]) is on record as 5.90. Besides, in data set [2] (setting [6]), the “% StrL/StrN” value was determined as 88.7%, the “Regional brain distribution Cerebellum (CB)” value turned out to be 0.76 % dose/g, the “Regional brain distribution Cortex” value came to 0.87 % dose/g and the “Regional brain distribution Hippocampus” value was 0.62 % dose/g. Moreover, in data set [2] (setting [6]), the “Regional brain distribution Hypothalamus” value is 0.99 % dose/g; the “Regional brain distribution Remainder” value is recorded as 1.16 % dose/g; the “ratio vs. CB, Cerebellum (CB)” value came out at 1.00; the “ratio vs. CB, Cortex” value is recorded as 1.15. In data set [2] (setting [6]), the “ratio vs. CB, Hippocampus” value was found to be 0.81; the “ratio vs. CB, Hypothalamus” value worked out at 1.31; the “ratio vs. CB, Remainder” value was 1.53; the “ratio vs. CB, Stratum N” value was 10.2. In addition, in data set [2] (setting [6]), the “ratio vs. CB, Striatum L” value was 9.07.
Take `COc1cc2c(cc1OCCCF)CCN1CC(CC(C)C)C(O)CC21` (racemic) [Compound 6b, (±)-2-hydroxy-3-isobutyl-9-(3-fluoropropoxy)-10-methoxy-1,2,3,4,6,7-hexahydro-11bH-benzo[a]quinolizine]: the Ki in data set [1] ([3H](±)-TBZ) is 0.19 ± 0.04 nM.

By Ki is commonly meant the equilibrium dissociation constant of an inhibitor or competing ligand from its target.
